Test results from US20200121618A1, “METHODS AND COMPOSITIONS FOR TREATMENT OF INFLAMMATION AND OXIDATIVE STRESS” (BIOELECTRON TECHNOLOGY CORPORATION, priority 2017, published 2020).

Tests used:
[1] = system: Human Aortic Endothelial Cells (HAEC) stimulated with IL-1β; test: Suppression of cytokine release from IL-1β-stimulated endothelial cells (Meso Scale); format: cell-based; details: for drop in levels of IL-6: versus DMSO control and alpha-tocopherol, Donors 1 and 2; for difference in cytokine suppression between diastereomers: A0001-RRR versus A0001-SRR
Protocol: Human Aortic Endothelial Cells (HAEC) stimulated with IL-1β result in the secretion of pro-inflammatory cytokines IL-6, IL-8 and MCP-1 as described in Wu et al., Atherosclerosis 147, 297-307 (1999). The detection of these secreted cytokines in the presence or absence of compounds was performed using Meso Scale technology.
HAEC cells from two donors (Catalog no. 2535), EGM-2 media with BulletKit supplements (Catalog no. 3162) were purchased from Lonza. IL-1β (Catalog no. 200-01B) was purchased from Peprotech. Custom MSD U-plex plates with assays to detect IL-6, IL-8 and TNF-α (Catalog no. K15067L) were purchased from Meso Scale Discovery. The cells were grown in tissue culture-treated flasks according to Lonza's instructions.
Test samples were supplied in 1.5 mL glass vials. The compounds were diluted with an appropriate volume of DMSO to result in a 10 mM stock solution. Once dissolved, they were stored at −20° C.
(§1) HAEC cells were cultured and used at passage 6. Cells were seeded in clear bottom, black wall 96-well tissue culture-treated polystyrene plates by resuspending a cell suspension at a density of 150,000 cells/mL in growth medium, then dispensing 100 microliters of cell suspension per well using an electronic multichannel pipette, corresponding to 15,000 cells/well (one plate per donor). The cell-containing plates were incubated 3 hours at 37° C. in an atmosphere with 95% humidity and 5% CO2 to allow attachment of the cells to the culture plate.
(§2) Test compounds were then added to varying final concentrations using the Tecan D300e Digital Dispenser, with subsequent back-filling with DMSO diluent to a final concentration of 0.6% (v/v). Cell plates were incubated for 20 hours at 37° C. in an atmosphere of 5% CO2 and 95% humidity.
IL-1β was then added to a final concentration of 10 nanograms/mL and then cell plates were incubated at 37° C. in an atmosphere of 5% CO2 and 95% humidity for 6 hours. Media was collected in a separate polypropylene plate, foil sealed and frozen at −80° C. for up to 96 hours.
Frozen media samples were thawed on ice and IL-6, IL-8 and TNF-alpha were measured using the Meso Scale multiplex assay according to the manufacturer's instructions. Included on each MSD plate was a dilution of IL-6, IL-8 and TNF-alpha standards to accurately quantify the secreted proteins in the media.

[2] = Miscibility / solubility description; format: physicochemical
Male C57BL/6 mice = test: APAP-induced liver damage in mice, serum liver enzymes ALT and AST; format: in vivo; details: for mean serum concentration of liver enzyme (ALT) versus APAP alone: 300 mg/kg SC pre-dosing for 4 days
Protocol: Compounds described herein were tested to determine their effects on liver enzyme concentrations following introduction of APAP in sufficient quantity to cause liver trauma.
Male C57BL/6 mice (Charles River Laboratories), aged 10-12 weeks, were randomly and prospectively assigned to receive treatment with either a test compound or vehicle only. Prior to commencement of testing, the animals had been pre-dosed with a test compound of either EPI-A0001 ((RRR)-alpha tocopherol quinone) or EPI-743 (REE)-alpha tocotrienol quinone) via subcutaneous injection for 4 days at levels of 300 mg/kg body weight dose(s). One additional test compound was administrated at 4 hours prior to commencement of testing. The mice were fasted for 12 hours prior to being challenged with 300 mg/kg body weight with APAP or an equal volume of the dosing vehicle (sterile saline) via […].
The animals were each administered with a single subcutaneous (SC) 300 mg/kg body weight dose of APAP or vehicle only formulation as described herein. All animals were dosed at approximately the same time on the dosing day (±1 hour). Subcutaneous doses were administered via bolus injection between the skin and underlying layers of tissue in the scapular region on the back of each animal. The hair was not clipped from the injection site prior to dosing. The injection site was monitored for necrosis and other changes to the skin and hair.
At the time of sample collection, livers were collected for histopathology and metabolomics analyses and blood was collected for metabolomics analyses or separated into serum for the liver enzyme (AST, ALT) analyses.

[3] = system: Human Aortic Endothelial Cells (HAEC); test: Cell viability via normalized ATP levels in HAEC; format: cell-based; details: higher dosing levels; 6 hours; Donors 486 and 662; FIGS. 13 and 14
Protocol: as §1, §2
FIGS. 7-14 present an expanded array of pro-inflammatory cytokines, including IL-6, IL-8, and TNFa (Tumor Necrosis Factor alpha). […] In these figures, GT is gamma-tocopherol, and DT is delta-tocopherol.

[4] = 4 hours, APAP 300 mg/kg, FIG. 1
[5] = 24 hours, 300 mg/kg SC pre-dosing, APAP 300 mg/kg, FIGS. 3 and 4

Compound: CC1=C(C)C(=O)C(CCC(C)(O)CCCC(C)CCCC(C)CCCC(C)C)=C(C)C1=O (stereo not drawn) [A0001, RRR-alpha tocopherol quinone]
- IL-6 suppression ([1]; 7.5 μM, 6 hours IL-1β): no longer evident
- suppression of IL-6 levels ([1]; 15 μM, 6 hours IL-1β, compared with 60 μM and 30 μM): not as dramatic
- drop in levels of IL-6 ([1]; 30 μM, 6 hours IL-1β): > 50%
- drop in levels of IL-6 ([1]; 60 μM, 6 hours IL-1β): > 50%
- dose dependence of IL-6 suppression ([1]; 7.5-60 μM, 6 hours, FIGS. 5 and 6): dosing dependent effect
- difference in cytokine suppression between diastereomers ([1]; 6 hours, Donors 486 and 662): small variation
- suppression of the various cytokines (IL-6, IL-8, TNFa) ([1]; 6 hours, Donors 486 and 662, FIGS. 7-12): dose dependent suppression
- miscibility with other oils [2]: infinitely miscible
- solubility in aqueous solvents [2]: practically insoluble
- mean serum concentration of liver enzyme (ALT) versus APAP alone (Male C57BL/6 mice; [4]): reduction in mean serum concentrations
- mean serum concentration level of ALT and AST versus APAP alone (G4) (Male C57BL/6 mice; [5]): reduction in mean serum concentration level
- effect on cell viability via normalized ATP levels [3]: only a slight effect

Compound: CC1=C(C)C(=O)C(CC[C@@](C)(O)CCC[C@H](C)CCC[C@H](C)CCCC(C)C)=C(C)C1=O [A0001-SRR]
- difference in cytokine suppression between diastereomers ([1]; 6 hours, Donors 486 and 662): small variation

Compound: CC(=O)Nc1ccc(O)cc1 [APAP, Acetaminophen, reference compound]
- mean level of ALT in serum after APAP introduction (Male C57BL/6 mice; APAP 300 mg/kg alone (G3), 4 hours, FIG. 1): approximately 3000 U/L
- mean level of AST in serum after APAP introduction (Male C57BL/6 mice; APAP 300 mg/kg alone (G3), 4 hours, FIG. 2): ~3200 U/L

Compound: CC(C)=CCC/C(C)=C/CC/C(C)=C/CCC(C)(O)CCC1=C(C)C(=O)C(C)=C(C)C1=O (stereo not drawn) [EPI-743, REE-alpha tocotrienol quinone]
- mean serum concentration of liver enzyme (ALT) versus APAP alone (Male C57BL/6 mice; [4]): reduction in mean serum concentrations
- share of animals with AST levels near zero (Male C57BL/6 mice; 4 hours, 300 mg/kg SC pre-dosing, APAP 300 mg/kg, 3 of 10, FIG. 2): 30%
- share of animals with ALT near zero (Male C57BL/6 mice; 4 hours, 300 mg/kg SC pre-dosing, APAP 300 mg/kg, 4 of 10, FIG. 1): 40%
- individual ALT and AST data points (Male C57BL/6 mice; [5]): several data points at or near zero
- mean serum concentration level of ALT and AST versus APAP alone (G4) (Male C57BL/6 mice; [5]): reduction in mean serum concentration level
